The text below walks through data of US20240116918A1, “SUBSTITUTED TRICYCLIC COMPOUND AS PRMT5 INHIBITOR AND USE THEREOF” (NANJING SANHOME PHARMACEUTICAL CO., LTD., priority 2019, published 2024).

pIC50: −log10 of the molar value.

The target in one data set is PRMT5 (Homo sapiens (Human), UniProt O14744). Briefly: In vitro evaluation of kinase activity (PRMT5 enzymatic assay, [3H]-SAM FlashPlate). Format: biochemical. The following applies: polypeptide substrate H4(1-21)S1ac 100 nM, [3H]-SAM 250 nM, 25° C., 60 min; read-out: Enzyme IC50 PRMT5. As for the experimental part: Compounds: the compounds of the present invention prepared in the above examples. Each compound was formulated into a 10 mM stock solution with DMSO, and finally diluted into 10 concentrations for detection, with the final concentrations being 10000.00 nM, 3333.33 nM, 1111.11 nM, 370.37 nM, 123.46 nM, 41.15 nM, 13.72 nM, 4.57 nM, 1.52 nM, and 0.51 nM.
PRMT5, sequence (O14744 whole entry): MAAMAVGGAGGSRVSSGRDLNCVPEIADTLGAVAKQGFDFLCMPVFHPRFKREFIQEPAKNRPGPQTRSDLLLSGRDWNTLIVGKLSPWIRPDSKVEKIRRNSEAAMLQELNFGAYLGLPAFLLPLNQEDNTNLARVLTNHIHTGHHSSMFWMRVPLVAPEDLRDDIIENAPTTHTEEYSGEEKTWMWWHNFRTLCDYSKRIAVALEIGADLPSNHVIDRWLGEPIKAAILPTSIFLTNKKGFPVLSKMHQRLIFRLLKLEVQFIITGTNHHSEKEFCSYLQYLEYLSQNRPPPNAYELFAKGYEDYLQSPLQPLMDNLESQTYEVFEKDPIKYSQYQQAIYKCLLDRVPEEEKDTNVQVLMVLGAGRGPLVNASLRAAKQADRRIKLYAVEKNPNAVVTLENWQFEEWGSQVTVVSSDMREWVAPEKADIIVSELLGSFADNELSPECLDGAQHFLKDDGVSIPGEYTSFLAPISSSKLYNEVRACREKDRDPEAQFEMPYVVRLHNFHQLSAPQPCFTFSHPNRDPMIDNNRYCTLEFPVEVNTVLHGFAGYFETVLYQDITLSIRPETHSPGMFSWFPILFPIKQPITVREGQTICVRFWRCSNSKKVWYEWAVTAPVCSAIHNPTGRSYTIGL
PRMT5, sequence (Q9BQA1 whole entry partner): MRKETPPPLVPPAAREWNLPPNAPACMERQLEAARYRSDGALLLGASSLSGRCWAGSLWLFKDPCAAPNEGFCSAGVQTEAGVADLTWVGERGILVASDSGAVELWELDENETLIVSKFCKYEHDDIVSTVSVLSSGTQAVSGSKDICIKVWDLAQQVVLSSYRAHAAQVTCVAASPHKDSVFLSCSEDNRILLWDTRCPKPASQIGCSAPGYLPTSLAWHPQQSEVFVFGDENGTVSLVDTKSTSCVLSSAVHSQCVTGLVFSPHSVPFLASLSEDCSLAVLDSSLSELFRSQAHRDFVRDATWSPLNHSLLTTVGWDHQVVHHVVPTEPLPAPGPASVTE
Reagents and consumables: PRMTS, purchased from Active Motif, Cat. No. 31921; polypeptide substrate H4(1-21)S1ac, purchased from Gill Biochemical (Shanghai) Co., Ltd., Cat. No. 342095; [^3H]-SAM, purchased From PerkinElmer, Cat. No. NET155V001MC; SAM, purchased from Sigma, Cat. No. A7007-100MG; SAH, purchased from Sigma, Cat. No. A9384-25MG; DTT, purchased from Sangon Bioengineering (Shanghai) Co., Ltd., Cat. No. A620058-0005. Corning-3657, purchased from Corning, Cat. No. 3657; Echo Qualified 384-Well, purchased from Labcyte, Cat. No. P-05525; FlashPlate, purchased from Perkin Elmer, Cat. No. SMP410J001PK.
2.1. Preparation of reaction buffer and reaction stop solution: the composition of 1× reaction buffer was 10 mM Tris-HCl, pH 8.0; 0.01% Tween-20; and 1 mM DTT. The composition of the reaction stop solution was 125 μM […] solution.
The compounds were dissolved in 100% DMSO to prepare 10 mM stock solutions and then diluted to desired concentrations on an Echo 384 well plate.
250 nL of the compounds diluted above were transferred from the Echo 384 well plate to a 384 well reaction plate using the Echo550 instrument.
PRMT5 was added to 1× reaction buffer to form 1.67× enzyme solution.
The polypeptide substrate and [^3H]-SAM were added to 1× reaction buffer to form 2.5× substrate solution (the final concentrations were 100 nM and 250 nM, respectively).
15 μL of 1.67× enzyme solution was added to the wells of a 384 well reaction plate. For control wells without enzymatic activity, the enzyme solution was replaced with 15 μL of 1× reaction buffer. The plate was centrifuged at 1000 rpm for 1 min and incubated at room temperature for 15 min. […]

The next data set has as its target hERG potassium channel (Homo sapiens (Human), UniProt Q12809).

hERG potassium channel, sequence (Q12809 whole entry): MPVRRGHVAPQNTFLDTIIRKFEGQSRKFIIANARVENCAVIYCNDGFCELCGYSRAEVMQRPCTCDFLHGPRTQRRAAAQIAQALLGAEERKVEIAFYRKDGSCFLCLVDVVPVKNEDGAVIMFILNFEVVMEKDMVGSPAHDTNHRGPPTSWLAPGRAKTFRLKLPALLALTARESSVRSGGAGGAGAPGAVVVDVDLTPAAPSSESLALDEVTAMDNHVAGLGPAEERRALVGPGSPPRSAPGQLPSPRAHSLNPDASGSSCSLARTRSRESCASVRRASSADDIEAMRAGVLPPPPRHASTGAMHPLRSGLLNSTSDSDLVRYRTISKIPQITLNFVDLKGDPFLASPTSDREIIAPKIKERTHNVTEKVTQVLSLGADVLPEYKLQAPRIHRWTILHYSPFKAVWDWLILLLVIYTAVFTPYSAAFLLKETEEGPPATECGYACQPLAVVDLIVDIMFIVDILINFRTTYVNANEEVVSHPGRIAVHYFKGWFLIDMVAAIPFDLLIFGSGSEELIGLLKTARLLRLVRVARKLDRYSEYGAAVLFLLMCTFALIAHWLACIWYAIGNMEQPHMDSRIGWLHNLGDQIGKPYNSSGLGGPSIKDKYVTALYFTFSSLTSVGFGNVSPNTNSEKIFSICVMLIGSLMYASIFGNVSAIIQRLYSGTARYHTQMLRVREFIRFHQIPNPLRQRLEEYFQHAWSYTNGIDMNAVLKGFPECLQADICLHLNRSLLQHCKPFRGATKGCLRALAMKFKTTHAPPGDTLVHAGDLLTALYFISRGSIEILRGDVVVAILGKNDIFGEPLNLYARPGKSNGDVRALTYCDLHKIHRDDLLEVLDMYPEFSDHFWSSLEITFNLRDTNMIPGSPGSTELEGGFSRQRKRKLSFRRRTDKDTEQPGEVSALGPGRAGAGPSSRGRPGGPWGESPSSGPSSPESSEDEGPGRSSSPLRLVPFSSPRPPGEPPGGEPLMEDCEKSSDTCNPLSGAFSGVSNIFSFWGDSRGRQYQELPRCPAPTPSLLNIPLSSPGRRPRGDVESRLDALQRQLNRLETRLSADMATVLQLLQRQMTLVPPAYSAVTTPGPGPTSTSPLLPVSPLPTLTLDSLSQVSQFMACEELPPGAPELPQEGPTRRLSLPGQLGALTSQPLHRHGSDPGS
Description for hERG potassium channel: Preparation of test solvents: preparation of extracellular fluid (mM): 137 NaCl, 4 KCl, 1.8 CaCl2, 1 MgCl2, 10 glucose and 10 HEPES (pH 7.4); preparation of intracellular fluid (mM): 130 KCl, 1 MgCl2, 5 EGTA, 5 MgATP and 10 HEPES (pH 7.2); preparation of negative control: extracellular fluid+0.3% DMSO; positive control: quinidine.
Compound treatment: The compound was weighed and dissolved in DMSO to prepare a 10 mM stock solution, which was diluted with DMSO to form secondary stock solutions with concentrations of 3.3, 1.1, 0.37 and 0.12 mM. 90 μL each of the stock solution and the secondary stock solutions was diluted into 30 mL of extracellular fluid for electrophysiological detection. The final concentrations of the compound were 30, 10, 3.3, 1.1 and 0.37 μM, and the final concentration of DMSO was 3:1000.
Stably transfected cell culture: The cell line was originated from HEK-293 cells overexpressing hERG potassium ion channel. […] The cells were cultured in an incubator at 37° C. and 5% CO2. When the cell density reaches 80% of the petri dish, the cells were first pre-washed with phosphate buffered saline (PBS), then digested with trypsin/EDTA for 2-3 min. Cell culture medium was added to stop the digestion. The cells were gently blown down and transferred to a centrifuge tube, and centrifuged at 1000 rpm for 3 min. The supernatant was discarded, cell culture medium was added, and the cells were mixed uniformly by gentle tapping. After that, the mixture was transferred to a petri dish for subculture, or the cells were dripped on a round glass slide and placed on a petri dish for the cells to adhere for experiments.
Experiments on electrophysiological manual patch-clamp system: The stably transfected cells were inoculated on a glass slide with a cell density lower than 50%, and cultured overnight. The experimental cells were transferred to a bath of about 1 mL embedded in an inverted microscope platform, and the extracellular fluid was perfused at a perfusion rate of 2.7 mL/min. After 5 minutes of stabilization, the experiment was started. Membrane currents were recorded using HEKA EPC-10 patch clamp amplifier and [sequence] acquisition system. All the experiments were performed at room temperature (22-24° C.). Electrodes were drawn straight using P-97 microelectrode drawing instrument (BF150-110-10) in the experiments. The inner diameter of the electrode was 1-1.5 mm, and the pipette resistance after filling with the inner liquid was 2-4 MΩ. The electrophysiological stimulation scheme of hERG potassium channel included: first setting the membrane voltage at −80 mV, applying a stimulation to the cells at +20 mV voltage for 2 s to activate the hERG potassium channel, and then repolarizing to −50 mV for 5 s to generate an outward tail current. The stimulation frequency was once every 15 s. The current value was the peak value of the tail current. The channel currents were recorded in the whole-cell recording mode. Firstly, the extracellular fluid was perfused (about 2 mL per minute) while recording was continued. When the current was stabilized (the current decay (Run-Down) was less than 5% within 5 minutes), the peak value of the tail current was the control current value. Then, the extracellular fluid containing the drug to be tested was perfused while the recording was continued until the inhibitory effect of the drug on the hERG current reached a steady state. At this time, the peak value of the tail current was the current value after drug addition. […]

A word on the pIC50: it is −log10 of the IC50, conventionally taken in molar units. Take `CC(=O)N1CCC(Nc2cc3c(cn2)C2(CC2)CN(C[C@H](O)CN2CCc4ccccc4C2)C3=O)CC1` [Example 1, (R)-7′-((1-acetylpiperidin-4-yl)amino)-2′-(3-(3,4-dihydroisoquinolin-2(1H)-yl)-2-hydroxypropyl)-2′,3′-dihydro-1′H-spiro[cyclopropane-1,4′-[2,6]naphthyridin]-1′-one]: on PRMT5, the negative-log IC50 (pIC50) is 7.49.

In the case of `CC(=O)N1CC2(CC(Nc3cc4c(cn3)C3(CC3)CN(C[C@H](O)CN3CCc5ccccc5C3)C4=O)C2)C1` [Example 2, (R)-7′-((2-acetyl-2-azaspiro[3.3]hept-6-yl)amino)-2′-(3-(3,4-dihydroisoquinolin-2(1H)-yl)-2-hydroxypropyl)-2′,3′-dihydro-1′H-spiro[cyclopropane-1,4′-[2,6]naphthyridin]-1-one], the “inhibitory effect on the hERG potassium channel (in words)” value against hERG potassium channel was “weak inhibitory effect”. In addition, on PRMT5, the pIC50 was 7.30.
